We go through 44 compounds from patent US8163737B2 (Vertex Pharmaceuticals Incorporated, priority 2006, dated 2012).

A word on the pIC50: it is the negative decadic logarithm of the IC50, by convention in mol/L. For orientation: pKi means the negative decadic logarithm of the Ki, by convention in mol/L. Read a low pKi as a large Ki.

pIC50, pKi: −log10 of the molar value.

For assay [1], the target named is endogenous CGRP receptor (Homo sapiens, UniProt O60894+Q16602). Nature of the assay: CGRP functional antagonism using SK-N-MC-BLA (4C10), β-lactamase transcriptional reporter assay. It counts as cell-based. The conditions noted are these: SK-N-MC (4C10) cells, inhibition of β-lactamase expression in the presence of 200 pM CGRP. In general terms: In a reporter assay the amount or activity of a reporter protein is the signal.

The target of assay [2] is T1, CGRP receptor (SK-N-MC membrane) (Homo sapiens, UniProt O60894+Q16602).
T1 construct: Purified SK-N-MC membrane was purchased from Perkin Elmer; purchased Perkin Elmer; host or cells: SK-N-MC membrane
In words: I125-CGRP binding displacement assay on purified SK-N-MC membrane. Summed up:
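Human SK-N-MC membranes incubated with compounds and I125-CGRP for 2 h at room temperature in 25 mM Tris-HCl pH 7.4, 5 mM MgCl2, 0.1% BSA, 0.05% Tween, then filtered and counted. Nonspecific binding defined with 1 uM unlabelled CGRP; percent displacement fitted to curves.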

T1 sequence (Q16602 23-461): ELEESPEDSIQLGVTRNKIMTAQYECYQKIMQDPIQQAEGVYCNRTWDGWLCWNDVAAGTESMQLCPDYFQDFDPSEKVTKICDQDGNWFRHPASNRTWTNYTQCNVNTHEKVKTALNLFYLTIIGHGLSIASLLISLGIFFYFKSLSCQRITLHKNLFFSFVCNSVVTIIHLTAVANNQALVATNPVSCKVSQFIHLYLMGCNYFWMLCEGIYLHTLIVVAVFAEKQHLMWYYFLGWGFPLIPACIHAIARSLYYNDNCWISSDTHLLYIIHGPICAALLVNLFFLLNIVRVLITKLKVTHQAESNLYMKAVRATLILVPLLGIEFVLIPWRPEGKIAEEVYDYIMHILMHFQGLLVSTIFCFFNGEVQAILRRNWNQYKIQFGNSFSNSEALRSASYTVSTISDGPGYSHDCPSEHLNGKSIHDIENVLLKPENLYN
T1 sequence (O60894 27-148): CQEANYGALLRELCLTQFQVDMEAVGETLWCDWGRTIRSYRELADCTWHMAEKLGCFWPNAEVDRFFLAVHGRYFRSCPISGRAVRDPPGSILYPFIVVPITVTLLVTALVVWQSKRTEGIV
Chain of endogenous CGRP receptor (Q16602 23-461): as the sequence (Q16602 23-461) above
Chain of endogenous CGRP receptor (O60894 27-148): as the sequence (O60894 27-148) above

On to `CC(C)(C)CCN1C(=O)[C@H](CC(=O)N2CCC(N3CCc4ccccc4NC3=O)CC2)SC1c1ccccc1N1CCNCC1=O` (stereo partly shown) [Compound 511], for which the pIC50 in assay [1] is more than 6.00. The pKi in assay [2] was more than 6.00.
In the case of `CCOCCCN1C(=O)C(CC(=O)N2CCC(N3Cc4ccccc4NC3=O)CC2)SC1c1ccccc1` (stereo not shown) [Compound 159], the pIC50 in assay [1] is more than 6.00. Further, the pKi in assay [2] was more than 6.00.
Regarding `CC(C)(C)CCN1C(=O)C(CC(=O)N2CCC(N3Cc4ccccc4NC3=O)CC2)SC12CCCc1ccccc12` (stereo not shown) [Compound 315], in assay [1], the pIC50 is more than 6.00. Besides, in assay [2], the pKi is more than 6.00.
With `N#Cc1ccccc1C1SC(CC(=O)N2CCC(N3Cc4ccccc4NC3=O)CC2)C(=O)N1CC1CCCCC1` (stereo not shown) [Compound 265], in assay [1], the pIC50 is more than 6.00. In assay [2], the pKi is more than 6.00.
For the compound `CC(C)CN1C(=O)C(CC(=O)N2CCC(N3Cc4ccccc4NC3=O)CC2)SC1c1ccccc1` (stereo not shown) [Compound 9], the pIC50 in assay [1] is more than 6.00. Also, the pKi in assay [2] was more than 6.00.
As to `CC(C)N1C(=O)C(CC(=O)N2CCC(N3Cc4ccccc4NC3=O)CC2)SC1c1ccccc1` (stereo not shown) [Compound 255, 3,4-Dihydro-3-(1-(2-(3-isopropyl-4-oxo-2-phenylthiazolidin-5-yl)acetyl)piperidin-4-yl)quinazolin-2(1H)-one], in assay [1], the pIC50 is 5.30 to 6.00. Also, in assay [2], the pKi was more than 6.00.
On to `CC(C)(C)CCN1C(=O)[C@H](CC(=O)N2CCC(N3CCc4ccccc4NC3=O)CC2)S[C@H]1c1ccccc1C1CCNCC1` [Compound 502, 4,5-Dihydro-3-(1-(2-((2S,5S)-3-(3,3-dimethylbutyl)-4-oxo-2-(2-(piperidin-4-yl)phenyl)thiazolidin-5-yl)acetyl)piperidin-4-yl)-1H-benzo[d][1,3]diazepin-2(3H)-one], for which the pIC50 in assay [1] is more than 6.00. Besides, the pKi in assay [2] is more than 6.00.
As to `CC(C)CCN1C(=O)C(CC(=O)N2CCC(N3CCc4ccccc4NC3=O)CC2)SC1c1ccc(F)cc1F` (stereo not shown) [Compound 44], the pIC50 in assay [1] was more than 6.00. The compound further had a pKi in assay [2] of more than 6.00.
With `CC(C)(C)CCN1C(=O)[C@H](CC(=O)N2CCC(N3CCc4ccccc4NC3=O)CC2)SC1c1cccc(F)c1N1CCN(C2CCC2)CC1` (stereo partly shown) [Compound 542], the pIC50 in assay [1] was more than 6.00. In assay [2], this compound showed a pKi of more than 6.00.
With `COCCN1C(=O)C(CC(=O)N2CCC(N3Cc4ccccc4NC3=O)CC2)SC1c1ccccc1` (stereo not shown) [Compound 30], the pIC50 in assay [1] is 5.30 to 6.00. In assay [2], the pKi is more than 6.00.
Turning to `CC(C)(C)CCN1C(=O)C(CC(=O)N2CCC(N3CCc4ccccc4NC3=O)CC2)SC12CCSCC2` (stereo not shown) [Compound 15], the pIC50 in assay [1] was more than 6.00. This compound had a pKi in assay [2] of more than 6.00.
In the case of `O=C(CC1SC(c2ccccc2)N(c2ccccc2)C1=O)N1CCC(N2Cc3ccccc3NC2=O)CC1` (stereo not shown) [Compound 187], the pIC50 in assay [1] is 5.30 to 6.00. In addition, the pKi in assay [2] is more than 6.00.
Taken in the same sequence, the figures for `CC(C)(C)CCN1C(=O)C(CC(=O)N2CCC(N3CCc4ccccc4NC3=O)CC2)SC1c1ccccc1N1CCOCC1` (stereo not shown) [Compound 70] were more than 6.00 and more than 6.00.
Taken in the same sequence, the figures for `CC(C)CCN1C(=O)C(CC(=O)N2CCC(n3cc(-c4ccccc4)[nH]c3=O)CC2)SC1c1ccccc1` (stereo not shown) [Compound 110] were less than 5.30 and less than 5.30.
For `CN1CCN(c2ccccc2C2SC(CC(=O)N3CCC4(CC3)CC(=O)Nc3ccccc3O4)C(=O)N2CCC(C)(C)C)CC1` (stereo not shown) [Compound 328], in that order: more than 6.00 and more than 6.00.
As for `CC(C)CCN1C(=O)C(CC(=O)N2CCC(N3CCc4ccccc4NC3=O)CC2)SC1c1ccc(F)cc1Cl` (stereo not shown) [Compound 79], the pIC50 in assay [1] was more than 6.00. Also, in assay [2], the negative-log Ki (pKi) is more than 6.00.
Take `CC(C)CCN1C(=O)C(CC(=O)N2CCC(n3c(=O)[nH]c4ccccc43)CC2)SC1c1ccccc1` (stereo not shown) [Compound 104]: the pIC50 in assay [1] is less than 5.30. In assay [2], this compound gave a pKi of less than 5.30.
`COCCN1C(=O)[C@H](CC(=O)N2CCC(n3c(=O)[nH]c4ncccc43)CC2)SC1c1cccc(F)c1N1CCN(C(C)(C)C)CC1` (stereo partly shown) [Compound 535]: the pIC50 in assay [1] is more than 6.00. The same compound had a pKi in assay [2] of more than 6.00.
`CC(C)CCN1C(=O)C(CC(=O)N2CCC(N3Cc4ccccc4NC3=O)CC2)SC1c1cccc(OC(F)(F)F)c1` (stereo not shown) [Compound 169]: the pIC50 in assay [1] was 5.30 to 6.00. The pKi in assay [2] was more than 6.00.
For `CC(C)CCN1C(=O)C(CC(=O)N2CCC(N3CCc4ccccc4NC3=O)CC2)SC1c1ccccc1N1CCC(O)CC1` (stereo not shown) [Compound 120], in that order: more than 6.00 and more than 6.00.
With `Cc1cccc(C2SC(CC(=O)N3CCC(N4Cc5ccccc5NC4=O)CC3)C(=O)N2CCC(C)C)c1` (stereo not shown) [Compound 41], the pIC50 in assay [1] was more than 6.00. Also, the pKi in assay [2] was more than 6.00.
With `O=C(CC1SC(c2ccccc2)N(CC2CC2)C1=O)N1CCC(N2Cc3ccccc3NC2=O)CC1` (stereo not shown) [Compound 271], the pIC50 in assay [1] was more than 6.00. Besides, in assay [2], the pKi was more than 6.00.
With `CC(C)(C)CCN1C(=O)[C@H](CC(=O)N2CCC(N3CCc4ccccc4NC3=O)CC2)SC1c1cccc(F)c1NCCN1CCCCC1` (stereo partly drawn) [Compound 520, 3-(1-(2-((5S)-2-(2-(2-(Piperidin-1-yl)ethylamino)-3-fluorophenyl)-3-(3,3-dimethylbutyl)-4-oxothiazolidin-5-yl)acetyl)piperidin-4-yl)-4,5-dihydro-1H-benzo[d][1,3]diazepin-2(3H)-one], the pIC50 in assay [1] is more than 6.00. Moreover, the pKi in assay [2] was more than 6.00.
Regarding `O=C(CC1SC(c2ccccc2)N(CCc2ccccn2)C1=O)N1CCC(N2Cc3ccccc3NC2=O)CC1` (stereo not shown) [Compound 128], in assay [1], the pIC50 is 5.30 to 6.00. The compound further had a pKi in assay [2] of more than 6.00.
Regarding `COCCN1C(=O)[C@H](CC(=O)N2CCC(N3CCc4ccccc4NC3=O)CC2)SC1c1cccc(F)c1N1CCN(C(C)(C)C)CC1` (stereo partly shown) [Compound 533], the pIC50 in assay [1] is more than 6.00. In assay [2], this compound had a pKi of more than 6.00.
For `COc1cccc(C2SC(CC(=O)N3CCC(n4cc(-c5ccccc5)[nH]c4=O)CC3)C(=O)N2CCC(C)C)c1` (stereo not shown) [Compound 61], the pIC50 in assay [1] was 5.30 to 6.00. Also, in assay [2], the pKi is less than 5.30.
For `CN(C)c1ccccc1C1SC(CC(=O)N2CCC(N3CCc4ccccc4NC3=O)CC2)C(=O)N1CCC(C)(C)C` (stereo not shown) [Compound 263], the pIC50 in assay [1] was more than 6.00. The same compound had a pKi in assay [2] of more than 6.00.
In the case of `CC(C)(C)CCN1C(=O)[C@H](CC(=O)N2CCC(n3c(=O)[nH]c4ncccc43)CC2)SC1c1cccc(F)c1N1CCC(F)C1` (stereo partly shown) [Compound 480], in assay [1], the pIC50 is 5.30 to 6.00. In assay [2], this compound showed a negative logarithm of the Ki (pKi) of more than 6.00.
Taken in the same sequence, the figures for `CC(C)CCN1C(=O)C(CC(=O)N2CCC(N3Cc4ccccc4NC3=O)CC2)SC1c1ccccc1C#N` (stereo not shown) [Compound 227] were more than 6.00 and more than 6.00.
Taken in the same sequence, the figures for `O=C(CC1SC(c2ccccc2)N(CCc2ccncc2)C1=O)N1CCC(N2Cc3ccccc3NC2=O)CC1` (stereo not shown) [Compound 236] were 5.30 to 6.00 and more than 6.00.
For `CC(C)(C)CCN1C(=O)C(CC(=O)N2CCC(n3c(=O)[nH]c4ccccc43)CC2)SC1c1ccccc1-n1ccnc1` (stereo not shown) [Compound 295], in that order: more than 6.00 and more than 6.00.
Turning to `CC(C)(C)CCN1C(=O)C(CC(=O)N2CCC(N3Cc4ccccc4NC3=O)CC2)SC1c1ccccc1N1CCN(c2ccccc2)CC1` (stereo not shown) [Compound 367], the negative logarithm of the IC50 (pIC50) in assay [1] is more than 6.00. The compound further gave a pKi in assay [2] of more than 6.00.
In the case of `CC(C)CCN1C(=O)C(CC(=O)N2CCC(N3Cc4ccccc4NC3=O)CC2)SC1C1CCCC1` (stereo not shown) [Compound 188], the pIC50 in assay [1] was more than 6.00. The compound further showed a pKi in assay [2] of more than 6.00.
Regarding `COc1ccccc1C1SC(CC(=O)N2CCC(N3Cc4ccccc4NC3=O)CC2)C(=O)N1CCC(C)C` (stereo not shown) [Compound 80], the pIC50 in assay [1] was more than 6.00. Further, the pKi in assay [2] was more than 6.00.
In the case of `CC(C)N1CCN(c2c(F)cccc2[C@@H]2S[C@@](C)(CC(=O)N3CCC(N4CCc5ccccc5NC4=O)CC3)C(=O)N2CCC(C)(C)C)CC1` [Compound 431], the pIC50 in assay [1] was more than 6.00. Further, the pKi in assay [2] was more than 6.00.
Consider `CC(C)(C)CCN1C(=O)C(CC(=O)N2CCC(N3CCc4ccccc4NC3=O)CC2)SC1c1cccc(F)c1F` (stereo not shown) [Compound 48], for which the pIC50 in assay [1] is more than 6.00. In addition, the pKi in assay [2] was more than 6.00.
In the case of `CC(C)(C)CCN1C(=O)C(CC(=O)N2CCC(n3c(=O)[nH]c4ccccc43)CC2)S[C@H]1c1ccccc1N1CCC(O)CC1` (stereo partly shown) [Compound 301], in assay [1], the pIC50 is more than 6.00. The compound also gave a pKi in assay [2] of more than 6.00.
In the case of `O=C(CC1SC(Cc2ccccc2)N(CC(F)(F)F)C1=O)N1CCC(N2Cc3ccccc3NC2=O)CC1` (stereo not shown) [Compound 190], in assay [1], the negative logarithm of the IC50 (pIC50) was less than 5.30. The pKi in assay [2] was 5.30 to 6.00.
For `CN1CCN(c2ccc(F)cc2C2SC(CC(=O)N3CCC(n4c(=O)[nH]c5ccccc54)CC3)C(=O)N2CCC(C)(C)C)CC1` (stereo not shown) [Compound 354], in that order: more than 6.00 and more than 6.00.
For `CC(C)(C)CCN1C(=O)[C@H](CC(=O)N2CCC(N3CC(=O)NC3=O)CC2)S[C@H]1c1cccc(F)c1N1CCN(C(C)(C)C)CC1` [Compound 447], the pIC50 in assay [1] is more than 6.00. In assay [2], this compound had a pKi of more than 6.00.
As to `O=C(CC1SC(c2ccccc2)N(CC2CCCCC2)C1=O)N1CCC(N2Cc3ccccc3NC2=O)CC1` (stereo not shown) [Compound 264], in assay [1], the pIC50 is more than 6.00. Besides, the pKi in assay [2] was more than 6.00.
On to `CC(C)(C)CCN1C(=O)[C@H](CC(=O)N2CCC(N3CCc4ccccc4NC3=O)CC2)SC1c1cccc(F)c1N1CCC(N2CCCCC2)CC1` (stereo partly shown) [Compound 550], for which the pIC50 in assay [1] was more than 6.00. The pKi in assay [2] was more than 6.00.
Take `CNC1CCN(c2c(F)cccc2[C@@H]2S[C@@H](CC(=O)N3CCC(n4c(=O)[nH]c5ncccc54)CC3)C(=O)N2CCC(C)(C)C)C1` (stereo partly shown) [Compound 459]: the pIC50 in assay [1] was more than 6.00. For the same compound, in assay [2], the pKi was more than 6.00.
`O=C(CC1SC(c2cccc(F)c2F)N(CC2CCCCC2)C1=O)N1CCC(N2CCc3ccccc3NC2=O)CC1` (stereo not shown) [Compound 279]: the pIC50 in assay [1] was more than 6.00. In assay [2], this compound showed a pKi of more than 6.00.
